Five molecules from ChEMBL document CHEMBL1201862, “PubChem BioAssay data set” (2004) can be followed below.

The test system of experiment [1] is INS1. The experiment can be described thus: protection of INS-1E cells from cytokine death, dose response, ATP luminescence, dry powder (AID 488844). The class given is functional, cell-based. The conditions noted are these: Rattus norvegicus.
Experiment [2] deals with INS1. The experiment in a line: inhibitors of cytokine-induced nitrite release, dose response, cell-based, Griess absorbance, INS-1E, dry powder, set 2 (AID 488868). The class given is functional. The conditions noted are these: Rattus norvegicus. (In general: The Griess reaction detects nitrite, a stable product of nitric oxide.)
Experiment [3] is described as follows: THP-1 cell cytotoxicity, dose response, cytotoxicity control, set 3 (AID 504852). The class given is functional. The conditions noted are these: Mycobacterium tuberculosis.
The nature of experiment [4]: THP-1 cell cytotoxicity, cytotoxicity control, set 4 (AID 504911). The format is functional. The settings on record: Mycobacterium tuberculosis.
For experiment [5], the target named is Phosphorylase b kinase gamma catalytic chain, liver/testis isoform (Homo sapiens, UniProt P15735). The class given is functional.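 Also: PHKG2 measured as one member of a kinome-wide kinase panel.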
Chain of Phosphorylase b kinase gamma catalytic chain, liver/testis isoform (P15735 whole entry, canonical isoform): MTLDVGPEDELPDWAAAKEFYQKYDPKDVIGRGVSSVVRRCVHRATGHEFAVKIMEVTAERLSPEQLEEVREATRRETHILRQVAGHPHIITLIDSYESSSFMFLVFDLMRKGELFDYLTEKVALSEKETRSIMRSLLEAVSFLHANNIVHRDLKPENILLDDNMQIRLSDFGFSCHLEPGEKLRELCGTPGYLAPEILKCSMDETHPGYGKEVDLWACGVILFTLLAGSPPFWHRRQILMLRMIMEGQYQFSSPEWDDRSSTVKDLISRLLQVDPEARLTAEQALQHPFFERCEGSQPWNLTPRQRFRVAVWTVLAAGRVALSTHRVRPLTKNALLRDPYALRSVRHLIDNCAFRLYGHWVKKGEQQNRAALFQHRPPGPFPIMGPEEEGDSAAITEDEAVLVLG
A further experiment addresses Beta Lactamase (Pseudomonas aeruginosa, UniProt Q932Y6). The experiment can be described thus: beta-lactamase reporter inhibitor potency, dose response, artefact control for TLR9-MyD88 binding inhibitor project, BLA reporter cells, FRET fluorescence (AID 588341).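 Also: cell based assay in CHO-K1 cells stably expressing beta-lactamase.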 The format is cell-based.
The target of experiment [6] is T1, Endoribonuclease toxin MazF (Escherichia coli K-12, UniProt P0AE70).
T1 sequence (P0AE70 whole entry): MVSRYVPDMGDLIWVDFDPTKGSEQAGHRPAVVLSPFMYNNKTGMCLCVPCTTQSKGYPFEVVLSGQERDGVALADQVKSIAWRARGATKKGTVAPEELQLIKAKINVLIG
The experiment in a line: MazF toxin RNase activators, dose response, biochemical, fluorescence, single-stranded RNA substrate, uHTS hits (AID 588481). The class given is functional.

The target of experiment [7] is T1, Endoribonuclease toxin MazF. The experiment in a line: fluorescent RNA oligo signal without MazF, dose response, counter-screen for MazEF activator project, biochemical, fluorescence, single-stranded RNase substrate (AID 588502). The format is functional. On the technique in general: The purpose of a counterscreen is to sort out artefacts and off-target activity.

For the next experiment, the system named is CHO. The experiment in a line: cytotoxicity in TLR9-MyD88 CHO cells, dose response, cytotoxicity control for TLR9-MyD88 binding inhibitor project, cell-based, luminescence (AID 588339).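 Also: CHO cells stably coexpressing TLR9 and MyD88 fusions from primary screen; compound exposure lasted 48 hours before viability readout.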 The conditions noted are these: Cricetulus griseus. The format is functional, hamster.
Experiment [8] in a line: cytotoxicity toward DRD oncogenic fibroblasts, dose response, cell-based, non-viral oncogenic, luminescence (AID 1934). The format is functional. The conditions noted are these: Homo sapiens.
The test system of experiment [9] is BJ. The experiment can be described thus: cells. The class given is functional, cell-based. The settings on record: Homo sapiens.
Experiment [10] relates to BJ. The experiment in a line: cytotoxicity toward BJ-TERT fibroblasts, dose response, cell-based, RAS-independent, luminescence (AID 1933). The class given is functional. The conditions noted are these: Homo sapiens.
Experiment [11] has as its system BJ. The experiment in a line: cytotoxicity toward BJ-TERT-LT-ST fibroblasts, dose response, cell-based, RAS-independent, luminescence (AID 1935).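 Also: BJ fibroblasts immortalized with TERT plus LT and ST oncogenes.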 The format is functional. The settings on record: Homo sapiens.
Experiment [12] concerns BJ. The experiment can be described thus: cytotoxicity toward Ras-transformed BJeLR fibroblasts, dose response, cell-based, alamar blue fluorescence, cherrypicked samples (AID 2631).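 Also: confirmatory dose-response assay in RAS-dependent BJ fibroblasts engineered with TERT, LT and ST, with cytotoxicity read by fluorescence.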 The class given is functional. The settings on record: Homo sapiens.

The source made the active and inactive calls. A value given as a limit tells only on which side of the number the result lay.

Chain of Beta Lactamase (Q932Y6 whole entry): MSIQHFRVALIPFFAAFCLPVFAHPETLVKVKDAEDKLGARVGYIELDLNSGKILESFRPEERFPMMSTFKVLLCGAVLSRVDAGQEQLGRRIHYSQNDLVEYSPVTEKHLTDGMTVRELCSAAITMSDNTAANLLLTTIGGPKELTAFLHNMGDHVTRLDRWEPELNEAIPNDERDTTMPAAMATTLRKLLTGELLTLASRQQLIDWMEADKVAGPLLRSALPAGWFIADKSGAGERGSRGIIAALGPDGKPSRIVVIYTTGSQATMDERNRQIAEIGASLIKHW

Turning to `C[C@@H]1CN([C@H](C)CO)C(=O)c2cccc(NC(=O)Nc3ccccc3)c2O[C@H]1CN(C)S(=O)(=O)c1ccc(Cl)cc1`, the half-maximal activity concentration (AC50) with INS1 [1] was 22.4 µM (active); with INS1 [2], 41.6 µM (active).

Turning to `O=C(CSc1ccccn1)NC1CCCCC1`, the cytotoxic concentration (CC50) in experiment [3] and in [4] was > 100 µM (active) in each case.

Regarding `NC(=O)c1cccc2[nH]c(-c3ccncc3)nc12`, the inhibitory constant (Ki) in [5] was 1 µM (active).

`Cn1cccc1/C=C1\CCC/C(=C\c2cccn2C)C1=O`: the IC50 at Beta Lactamase was 10.9 µM (inactive); in the experiment with CHO it was > 49.8 µM (inactive). The results for the EC50 in [6] and in [7] were > 99 µM (inactive) and 23.9 µM (inactive), respectively.

For `Cc1nc(=O)c2cc(CN(C)c3ccc(C(=O)N[C@@H](CCC(=O)O)C(=O)O)s3)ccc2[nH]1` [RALTITREXED], the EC50 in experiment [8] is > 150 µM (inconclusive); in the experiment on BJ [9] it was 0.192 µM (inconclusive); with BJ [10], > 150 µM (not active); in the experiment with BJ [11], > 150 µM (inconclusive); in the experiment with BJ [12], > 133 µM (inactive).

What is called AC50 is the midpoint of the concentration-response curve, whichever way the signal moves. The term CC50 denotes the concentration that lowers cell viability or growth by half. For orientation: Ki means a measure of affinity in units of concentration, obtained from inhibition or displacement. Broadly, the IC50 is the midpoint of a concentration-inhibition curve. As usually defined, the EC50 is the concentration giving half of the maximal effect.
